Reference: patent US7745473B2, “Indole derivative for alkylating specific base sequence of DNA and alkylating agent and drug containing the derivative” (Kyoto University, priority 2004, dated 2010)
“Also recorded” adds a separate entry of the source.

Tests used:
[1] = test system: long-chain DNA (pUC-II; SEQ ID NO:4, pUC-I′; SEQ ID NO:1); test: DNA alkylation of 5′-Texas Red-labeled long-chain DNA, analysed by polyacrylamide gel electrophoresis; format: biochemical; conditions: 8 hours, pUC-II and pUC-I′, FIG. 2
Experimental: A 5′-Texas Red-labeled DNA fragment (450 bp) (pUC-I′, SEQ ID NO:1) was prepared by a PCR method using a 5′-Texas Red-labeled 20-base-pair primer, i.e., 5′-TexRed-[…]-3′ (pUC18 forward, 780-799; SEQ ID NO:2), and a 20-base-pair primer, i.e., 5′-[…]-3′ (pUC18 reverse, 1459-1478; SEQ ID NO:3), puc18 being used as a template. The DNA fragment was in a double-stranded state including a complementary strand (the following fragments were in the same state).
A 5′-Texas Red-labeled DNA fragment (450 bp) (pUC-II, SEQ ID NO:4) was prepared by a PCR method using a 5′-Texas Red-labeled 21-base-pair primer, i.e., 5′-TexRed-[…]-3′ (pUC18 reverse, 1861-1881; SEQ ID NO:5), and a 19-base-pair primer, i.e., 5-TGTAAAACGACGGCCAGTG-3′ (pUC18 forward, 328-345; SEQ ID NO:6), puc18 being used as a template.
(§1) Analysis by polyacrylamide gel electrophoresis was performed by the following process: A standard reaction solution containing the 5′-Texas Red-end-labeled DNA fragment (10 nM), DMF (10% (v/v)), and an agent having a concentration described above in a sodium phosphate buffer (5 mM, total volume: 10 μL, pH=7.0) was charged into a microfuge tube (Eppendorf) and left standing at 23° C. for 8 hours. After completion of the reaction, the reaction was quenched by the addition of calf thymus DNA (1 mM, 1 μL). The resulting mixture was shaken at 90° C. for 5 minutes. The DNA obtained by centrifugation under reduced pressure was dissolved by the addition of 8 μl, of loading dye (fushin red solution in DMF), shaken at 94° C. for 20 minutes, and then immediately cooled to 0° C. A 2-μL aliquot was separated electrophoretically on a 6% denaturing polyacrylamide gel using a Hitachi 5500-S DNA sequencer. The following tests were conducted in a similar way.
The reaction of compounds (3-2) and (3-3) prepared in the above-described Synthesis Examples with DNA was studied using the long-chain DNA (pUC-II; SEQ ID NO:4, pUC-I′; SEQ ID NO:1). An alkylation reaction was performed for 8 hours. The sequence alkylated was analyzed by polyacrylic gel electrophoresis for sequence determination. […] However, the difference in sequence recognition ability was observed. […] From the stand point of the sequence recognition ability, the molecular design of compound (3-2) was excellent.

[2] = test system: long-chain DNA (λ-F10906; SEQ ID NO:8); test: as above; format: biochemical; conditions: λ-F10906, nanomolar concentrations, FIG. 4
Experimental: A 5′-Texas Red-labeled DNA fragment (537 bp) (λ-F10906; SEQ ID NO:8) was prepared by a PCR method using a 5′-Texas Red-labeled 23-base-pair primer, i.e., 5′-TexRed-[…]-3′ (λ-DNA forward, 10960-10982; SEQ ID NO:9), and a 20-base-pair primer, i.e., 5′-[…]-3′ (λ-DNA reverse, 37007-37026; SEQ ID NO:10), λ-DNA being used as a template.
as §1
The reaction of compounds (3-2), (3-4), and (3-5) with DNA was studied using the long-chain DNA (λ-F10906; SEQ ID NO:8). The DNA-alkylating ability of each compound was evaluated.

[3] = test system: HCT-116 (human colon cancer-derived cell); conditions: read-out: 50% cell growth inhibitory concentration (IC50); HCT-116, 48 hours, 0.1% DMF
Experimental: (§2) HCT-116 (human colon cancer-derived cell), HeLa (human cervical cancer-derived cell), HLC-2 (human lung cancer-derived cell), and SH-SY-5Y (human neuroblast-derived cell) were treated with AcImImPyPy-γ-ImPy-Indole-CBI (3-2) (10^−5 to 10^−8 M with 0.1% DMF) for 48 hours to evaluate the effect of the compound as an anticancer agent.
(§3) Evaluation of anticancer activity was made by the following process: HCT-116, HeLa, HLC-2, and SH-SY-5Y cell lines were seeded into a 96-well flat bottom plate in complete media [RPMI1640 (HCT-116, SH-SY-5Y; Sigma-Aldrich Co.) each containing 10% fetal bovine serum and Dulbecco's […] (HeLa, HLC-2, 293T, WI-38; Sigma-Aldrich Co.)] at cell densities of 4.0×10^3, 3.6×10^3, 1.6×10^3, 7.0×10^2, 5.0×10^2, and 8.0×10^2 cells/well and were precultured for 24 hours in a CO2 incubator. The media were replaced with complete media containing 0.1% DMF and 10^−5 to 10^−8 M AcImImPyPy-γ-ImPy-Indole-CBI (3-2). Incubation was performed for 48 hours in the CO2 incubator. Then, 10 μL/well of a Cell Counting Kit-8 (Dojindo Laboratories) was added. The specimens were left standing for 2 hours in the CO2 incubator. Absorbance was measured with a microplate reader MPR-A4I (Tosoh Corp.).

[4] = test system: HLC-2 (human lung cancer-derived cell); conditions: read-out: 50% cell growth inhibitory concentration (IC50); HLC-2, 48 hours, 0.1% DMF
Experimental: as §2, §3

[5] = test system: HeLa (human cervical cancer-derived cell); conditions: read-out: 50% cell growth inhibitory concentration (IC50), 48 hours, 0.1% DMF
Experimental: as §2, §3

[6] = test system: SH-SY-5Y (human neuroblast-derived cell); conditions: read-out: 50% cell growth inhibitory concentration (IC50), 48 hours, 0.1% DMF
Experimental: as §2, §3

[7] = test system: cancerous cell lines versus normal cell lines; conditions: cancerous versus normal cell lines (293T, WI-38)
Experimental: as §2, §3

[8] = test system: 39 cultured human cancer cell lines; test: Anticancer activity screening on 39 cultured human cancer cell lines (Japanese Foundation for Cancer Research); conditions: mean of 39 cultured human cancer cell lines
Source text: Evaluation of the anticancer activity on the 39 cultured human cancer cell lines from breast cancer cell line to prostate cancer cell line was made by screening test performed in The Japanese Foundation for Cancer Research.

[9] = test system: 727-bp DNA fragment (SEQ ID NO:14); test: Sequence-specific alkylation of DNA by polyamide heterodimer; format: biochemical; conditions: 727-bp fragment, FIG. 7
Experimental: A 5′-Texas Red-labeled 727-bp DNA fragment (SEQ ID NO:14) was prepared by a PCR method using a 5′-Texas Red-labeled 20-base-pair primer, i.e., 5′-TexRed-[…]-3′ (SEQ ID NO:15), and a 21-base-pair primer, i.e., 5′-[…]-3′ (SEQ ID NO:16), a plasmid containing MLP into which the code base sequence of human β-globin was integrated being used as a template.
as §1, with “way. […]” for “way.”

[10] = test system: DNA fragment (SEQ ID NO:11) derived from pQBI63; test: DNA alkylation of 5′-Texas Red-labeled DNA fragment (994 bp); format: biochemical; conditions: FIG. 5
Experimental: A 5′-Texas Red-labeled DNA fragment (994 bp) (pQBI63; SEQ ID NO:11) was prepared by a PCR method using a 20-base-pair primer, i.e., 5′-[…]-3′ (SEQ ID NO:12), and a 5′-Texas Red-labeled 20-base-pair primer, i.e., 5′-TexRed-[…]-3′ (SEQ ID NO:13), pQBI63 plasmid being used as a template.
as §1, with “way. […]” for “way.”

5′-YG(A/T)CR-3′ sequence = conditions: low concentration, dimer, both chains, sites 5 base pairs apart; cited from earlier work
[11] = test system: DNA fragment (446 bp; SEQ ID NO:17) containing 24 repeats of a telomeric sequence; test: DNA alkylation targeting telomeric sequence; format: biochemical; conditions: 446 bp fragment, nanomolar concentrations, FIG. 8
Experimental: A 5′-Texas Red-labeled 446-bp DNA fragment (SEQ ID NO:17 with a 24-times-repeated telomere sequence was prepared by a PCR method using a 5′-Texas Red-labeled 20-base pair primer, i.e., 5′-TexRed-[…]-3′ (SEQ ID NO:18), and a 20-base-pair primer, i.e., 5′-[…]-3′ (SEQ ID NO:19), pCR2.1 plasmid into which an oligomer having a repetitive telomere sequence was integrated from the cleavage site by EcoRI being used as a template. The resulting each DNA fragment was purified by filtration using Suprec-02. The concentration of each resulting product was determined by measuring UV absorption.
as §1, with “A 2-μL aliquot was separated electrophoretically on a 6% denaturing polyacrylamide gel using a Hitachi 5500-S DNA sequencer. The following tests were conducted in a similar way.” left out

Molecule: AcImImPyPy-γ-ImPy-Indole-CBI [compound (3-2)]
- alkylated sites (sequence recognition ability) [1]: alkylation in only site 3 (5′-TGACCA-3′) and site 6 (5′-AGTCCA-3′), which were match sequences, was observed
- efficiency of DNA alkylation [1]: efficient DNA alkylation comparable with that of a known Py-Im polyamide having a vinyl linker was observed at nanomolar concentrations
- sequence-specific DNA alkylation, alkylated sites [2]: Sequence-specific DNA alkylation (site 2 and 3: 5′-TGACCA-3′, site 4: 5′-AGACCA-3′, site 5: 5′-TGTCCA-3′)
- IC50 [3]: 74.2 nM
- IC50 [4]: 53.5 nM
- IC50 [5]: 59.7 nM
- IC50 [6]: 7.43 nM
- anticancer activity against the cancerous cell lines relative to the normal cell lines [7]: about 10 times
- mean log IC50 value of 39 cell lines ([8]; log value, FIG. 9): about −7
- IC50 ([8]; read-out: mean IC50 of 39 cell lines, printed in brackets after the log value): ~100 nM

Molecule: CC(=O)Nc1cn(C)c(C(=O)Nc2cn(C)c(C(=O)Nc3cc(C(=O)NCCC(=O)Nc4cn(C)c(C(=O)Nc5cc(C(=O)Nc6ccc7[nH]c(C(=O)N8CC9CC9%10C8=CC(=O)c8ccccc8%10)cc7c6)n(C)c5)n4)n(C)c3)n2)n1 (stereo not drawn) [compound (3-7), AcImImPy-β-ImPy-Indole-CBI]
- alkylated sites in the presence of compound (6) ([9]; compound (6) 500 nM, heterodimer): alkylation (site 4) based on accurate 10-base-pair recognition was observed
- alkylated sites, compound alone ([9]; nanomolar concentrations): efficient alkylation of sites 1 and 2 based on a hairpin mode of recognition and of site 3 based on a linear-chain mode of recognition

Molecule: CC(=O)Nc1cn(C)c(C(=O)Nc2cn(C)c(C(=O)Nc3cc(C(=O)Nc4cc(C(=O)NCCC(=O)Nc5cc(C(=O)Nc6cc(C(=O)NCCCC(=O)Nc7cn(C)c(C(=O)Nc8cc(C(=O)NCCC(=O)Nc9cn(C)c(C(=O)Nc%10cc(C(=O)Nc%11ccc%12[nH]c(C(=O)N%13CC%14CC%14%15C%13=CC(=O)c%13ccccc%13%15)cc%12c%11)n(C)c%10)n9)n(C)c8)n7)n(C)c6)n(C)c5)n(C)c4)n(C)c3)n2)n1 (stereo not shown) [compound (3-6), AcImImPyPyβPyPy-γ-ImPyβImPy-Indole-CBI]
- alkylated sites (sequence recognition) [10]: alkylation (site 2) due to 1-bp-mismatch recognition was observed; also recorded: alkylation of AT-rich base sequences (sites 1 and 3) was also observed
- efficiency of DNA alkylation [10]: efficiently alkylated 1,000-base-pair DNA at nanomolar concentrations

Molecule: ImPyLDu86
- alkylation efficiency (5′-YG(A/T)CR-3′ sequence): 70%

Molecule: CC(=O)Nc1cn(C)c(C(=O)Nc2cn(C)c(C(=O)Nc3cn(C)c(C(=O)NCCCC(=O)Nc4cc(C(=O)Nc5cc(C(=O)Nc6ccc7[nH]c(C(=O)N8CC(CCl)c9c8cc(O)c8ccccc98)cc7c6)n(C)c5)n(C)c4)n3)n2)n1 (stereo not shown) [compound (4-3), AcImImIm-γ-PyPy-Indole-seco-CBI]
- telomeric-sequence-specific alkylation [11]: Efficient telomeric-sequence-specific alkylation (5′-ACCCTA-3′) in a hairpin mode of recognition
